For this test, the system named is S. aureus. In words: Sandwich ELISA readout of growth-dependent metabolic labeling (biotin-D-lysine probe incorporation) +/- antibiotic. Particulars: S. aureus +/- vancomycin; FIG. 4. In kind it is cell-based, Staphylococcus aureus. Here is the method: FIG. 4. ELISA can be used as a rapid readout for antibiotic susceptibility. S. aureus was incubated+/−antibiotic for 20 min then with cell envelope probe for an additional 10 min. Probe incorporation was quantitated by sandwich ELISA (absorbance, OD450).
Bacterial strains and growth conditions. Staphylococcus aureus was grown in brain heart infusion broth (BHI; BD BBL, Sparks, MD.). Escherichia coli K-12 was grown in Luria Bertani broth (LB; Apex Research Products, El Cajon, CA). All bacteria were initially grown by shaking at 37° C. overnight.
Cell wall labeling. Bacterial cultures were back diluted in their respective media and grown at 37° C. until the mid-log phase (OD600=0.3 for S. aureus; OD600=0.35 for E. coli); for concentration dependency experiments the starting OD600 for each sample varied. Where appropriate, cultures were treated with freshly prepared ampicillin (100 μg/mL; Fisher Bioreagents, Fair Lawn, NJ) or vancomycin (100 μg/mL; Alfa Aesar, Ward Hill, MA) and incubated on a shaker at 37° C. for 90 minutes.
Growing bacteria were labeled with biotin D-lysine (Chem-Impex International, Wood Dale, IL; reagent was deprotected first). Unless otherwise indicated, they were labeled with 1 mM biotin-D-lysine shaking at 37° C. for 20 (S. aureus) or 30 (E. coli) minutes. […]
ELISA experiment. […] The absorbance was measured at 450 nm with a BioTek Plate Reader.

Regarding `CN[C@H](CC(C)C)C(=O)N[C@H]1C(=O)N[C@@H](CC(N)=O)C(=O)N[C@H]2C(=O)N[C@H]3C(=O)N[C@H](C(=O)N[C@H](C(=O)O)c4cc(O)cc(O)c4-c4cc3ccc4O)[C@H](O)c3ccc(c(Cl)c3)Oc3cc2cc(c3O[C@@H]2O[C@H](CO)[C@@H](O)[C@H](O)[C@H]2O[C@H]2C[C@](C)(N)[C@H](O)[C@H](C)O2)Oc2ccc(cc2Cl)[C@H]1O` [vancomycin], the “ELISA readout of probe incorporation (absorbance, OD450) with versus without antibiotic” value is “can discriminate between S. aureus+/−vancomycin”.

These data come from patent publication US20250002970A1, “A[…] LABELING FOR DETECTION OF BACTERIAL VIABILITY, GROWTH AND ANTIBIOTIC SUSCEPTIBILITY” (University of Massachusetts, priority 2021, published 2025).
